PMC8885417, “Pharmacological targeting of MTHFD2 suppresses acute myeloid leukemia by inducing thymidine depletion and replication stress” (Nature Cancer, 2022)

How the values were obtained:
MTHFD1-(DC) = biological target: T1, MTHFD1-(DC) (Homo sapiens, UniProt P11586); experiment: biochemical activity assay
T1 construct: dehydrogenase/cyclohydrolase (DC) domain

MTHFD2L = MTHFD2L (Homo sapiens, UniProt Q9H903); experiment: biochemical activity assay
Chain of MTHFD2L (Q9H903 whole entry): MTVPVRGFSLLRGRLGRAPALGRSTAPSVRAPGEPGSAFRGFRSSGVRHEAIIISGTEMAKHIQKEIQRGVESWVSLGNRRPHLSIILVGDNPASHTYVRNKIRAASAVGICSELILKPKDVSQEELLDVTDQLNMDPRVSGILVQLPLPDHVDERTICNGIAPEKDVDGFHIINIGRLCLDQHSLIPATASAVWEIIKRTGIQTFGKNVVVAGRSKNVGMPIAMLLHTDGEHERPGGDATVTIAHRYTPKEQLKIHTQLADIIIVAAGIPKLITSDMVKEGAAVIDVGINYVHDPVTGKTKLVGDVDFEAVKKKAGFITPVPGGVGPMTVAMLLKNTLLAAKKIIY

T1 sequence (P11586 2-306 limits assumed): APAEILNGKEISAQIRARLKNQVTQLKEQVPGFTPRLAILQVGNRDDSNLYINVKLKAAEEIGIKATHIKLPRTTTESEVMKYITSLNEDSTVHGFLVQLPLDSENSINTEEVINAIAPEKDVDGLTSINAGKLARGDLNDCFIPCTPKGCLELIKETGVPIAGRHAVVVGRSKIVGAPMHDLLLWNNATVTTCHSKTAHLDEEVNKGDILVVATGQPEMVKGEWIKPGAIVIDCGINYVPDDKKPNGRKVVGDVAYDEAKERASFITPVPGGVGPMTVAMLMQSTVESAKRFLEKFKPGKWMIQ

IC50 (MTHFD1-(DC)) [nM]	SMILES	IC50 (MTHFD2L) [nM]
535	Nc1nc2c(c(=O)[nH]1)N1C(=O)N(c3ccc(C(=O)N[C@@H](CCC(=O)O)C(=O)O)cc3)CC1CN2 (some centres unmarked) [LY345899]	–
–	Nc1nc(N)c(NC(=O)Nc2ccc(C(=O)N[C@@H](CCC(=O)O)C(=O)O)cc2)c(=O)[nH]1 [TH7299]	126
